Holding throughout (assay type): functional
One assay has as its system Klebsiella pneumoniae. Description: Antibacterial activity against Klebsiella pneumoniae after 24 hr by broth dilution method. (Dilution methods test growth across graded concentrations, often in twofold steps.)
Another assay concerns Pseudomonas aeruginosa. Description: Antibacterial activity against Pseudomonas aeruginosa after 24 hr by broth dilution method.
Another assay relates to Escherichia coli. Description: Antibacterial activity against Escherichia coli after 24 hr by broth dilution method.
Another assay has as its system Staphylococcus aureus. Description: Antibacterial activity against Staphylococcus aureus after 24 hr by broth dilution method.
Assay [1] deals with Staphylococcus epidermidis. Description: Antibacterial activity against Staphylococcus epidermidis after 24 hr by broth dilution method.
Assay [2] has as its system Diutina rugosa. Description: Antifungal activity against Candida rugosa at 150 ug after 48 hr by agar cup bioassay. To be noted: read-out: DIZ.
Assay [3] concerns Diutina rugosa. Description: Antifungal activity against Candida rugosa at 100 ug after 48 hr by agar cup bioassay. Conditions: read-out: DIZ.
The test system of assay [4] is Candida albicans. Description: Antifungal activity against Candida albicans at 150 ug after 48 hr by agar cup bioassay. To be noted: read-out: DIZ.
In assay [5] the test system is Candida albicans. Description: Antifungal activity against Candida albicans at 100 ug after 48 hr by agar cup bioassay. To be noted: read-out: DIZ.
In a further assay the test system is Bacillus subtilis. Description: Antibacterial activity against Bacillus subtilis after 24 hr by broth dilution method.
The test system of assay [6] is Diutina rugosa. Description: Antifungal activity against Candida rugosa at 50 ug after 48 hr by agar cup bioassay. To be noted: read-out: DIZ.
Assay [7] relates to Candida albicans. Description: Antifungal activity against Candida albicans at 50 ug after 48 hr by agar cup bioassay. To be noted: read-out: DIZ.

In brackets after ≈: the same amount, converted by molar mass.

For `NC(=O)N/N=C/c1c(-c2ccccc2)n(CC(=O)c2ccccc2)c2ccccc12`, the MIC was found to be 115 µg/mL (≈ 290 µM) against Klebsiella pneumoniae; 100 µg/mL (≈ 252 µM) in the assay with Pseudomonas aeruginosa; 100 µg/mL (≈ 252 µM) against Escherichia coli; 130 µg/mL (≈ 328 µM) against Staphylococcus aureus; 110 µg/mL (≈ 277 µM) in assay [1]; 125 µg/mL (≈ 315 µM) against Bacillus subtilis. Moreover, the zone of inhibition at 150 µg/disc in the assay on Diutina rugosa [2] and with Candida albicans [4] was 8 mm in each case. Further, the zone of inhibition at 100 µg/disc in the assay on Diutina rugosa [3] and in the assay on Candida albicans [5] was 0 mm each time.

Turning to `NC(=O)N/N=C/c1c(-c2ccccc2)n(CC(=O)c2ccc(Cl)cc2)c2ccccc12`, the MIC came to 120 µg/mL (≈ 278 µM) against Klebsiella pneumoniae; 115 µg/mL (≈ 267 µM) in the assay with Pseudomonas aeruginosa; 125 µg/mL (≈ 290 µM) with Escherichia coli; 130 µg/mL (≈ 302 µM) with Staphylococcus aureus; 140 µg/mL (≈ 325 µM) in assay [1]; 110 µg/mL (≈ 255 µM) in the assay with Bacillus subtilis. The zone of inhibition at 150 µg/disc amounted to 12 mm in the assay with Diutina rugosa [2] and 10 mm with Candida albicans [4]. Also, the zone of inhibition at 100 µg/disc with Diutina rugosa [3] was found to be 5 mm; in the assay with Candida albicans [5], 4 mm.

For `NC(=O)N/N=C/c1c(-c2ccccc2)n(CC(=O)c2ccc(Br)cc2)c2ccccc12`, the MIC in the assay on Klebsiella pneumoniae was 130 µg/mL (≈ 273 µM); with Pseudomonas aeruginosa it was 135 µg/mL (≈ 284 µM); against Escherichia coli it was 120 µg/mL (≈ 252 µM); against Staphylococcus aureus, 125 µg/mL (≈ 263 µM); in [1], 130 µg/mL (≈ 273 µM); against Bacillus subtilis, 105 µg/mL (≈ 221 µM).

On to `Cc1ccc(C(=O)Cn2c(-c3ccccc3)c(/C=N/NC(N)=O)c3ccccc32)cc1`, for which the MIC in the assay on Klebsiella pneumoniae was more than 150 µg/mL; in the assay on Pseudomonas aeruginosa, more than 150 µg/mL; against Escherichia coli it was 130 µg/mL (≈ 317 µM); in the assay on Staphylococcus aureus, 130 µg/mL (≈ 317 µM); in [1], 125 µg/mL (≈ 305 µM); in the assay with Bacillus subtilis, more than 150 µg/mL. For the same molecule, the zone of inhibition at 150 µg/disc with Diutina rugosa [2] and in the assay on Candida albicans [4] was 10 mm in each case. For the same molecule, the zone of inhibition at 100 µg/disc in the assay with Diutina rugosa [3] and with Candida albicans [5] was 7 mm in each case.

Regarding `COc1ccc(C(=O)Cn2c(-c3ccccc3)c(/C=N/NC(N)=O)c3ccccc32)cc1`, the MIC came to 120 µg/mL (≈ 281 µM) against Klebsiella pneumoniae; 145 µg/mL (≈ 340 µM) in the assay on Pseudomonas aeruginosa; 140 µg/mL (≈ 328 µM) in the assay with Escherichia coli; 110 µg/mL (≈ 258 µM) in the assay with Staphylococcus aureus; 130 µg/mL (≈ 305 µM) in [1]; 140 µg/mL (≈ 328 µM) with Bacillus subtilis. In addition, the zone of inhibition at 150 µg/disc in the assay on Diutina rugosa [2] and in the assay with Candida albicans [4] was 10 mm throughout. For the same molecule, the zone of inhibition at 100 µg/disc with Diutina rugosa [3] and with Candida albicans [5] was 8 mm each time.

On to `NC(=O)N/N=C/c1c(-c2ccccc2)n(CC(=O)c2ccc([N+](=O)[O-])cc2)c2ccccc12`, for which the MIC against Klebsiella pneumoniae stood at 37.5 µg/mL (≈ 84.9 µM); in the assay with Pseudomonas aeruginosa it was 75 µg/mL (≈ 170 µM); against Escherichia coli, 130 µg/mL (≈ 294 µM); with Staphylococcus aureus, 125 µg/mL (≈ 283 µM); in assay [1] it was 110 µg/mL (≈ 249 µM); in the assay on Bacillus subtilis it was 120 µg/mL (≈ 272 µM). Moreover, the zone of inhibition at 150 µg/disc in the assay with Diutina rugosa [2] and with Candida albicans [4] was 14 mm in each case. For the same molecule, the zone of inhibition at 100 µg/disc in the assay with Diutina rugosa [3] amounted to 10 mm; with Candida albicans [5] it was 9 mm.

Regarding `NC(=O)N/N=C/c1c(-c2ccccc2)n(CC(=O)c2ccc(-c3ccccc3)cc2)c2ccccc12`, the MIC in the assay with Klebsiella pneumoniae is 135 µg/mL (≈ 286 µM); with Pseudomonas aeruginosa, 105 µg/mL (≈ 222 µM); in the assay on Escherichia coli it was 120 µg/mL (≈ 254 µM); with Staphylococcus aureus, 110 µg/mL (≈ 233 µM); in assay [1], 130 µg/mL (≈ 275 µM); in the assay on Bacillus subtilis, more than 150 µg/mL.

As for `C=CCn1c(-c2ccccc2)c(/C=N/NC(N)=O)c2ccccc21`, the MIC with Klebsiella pneumoniae is more than 150 µg/mL; with Pseudomonas aeruginosa, 125 µg/mL (≈ 393 µM); against Escherichia coli it was 120 µg/mL (≈ 377 µM); with Staphylococcus aureus it was 125 µg/mL (≈ 393 µM); in assay [1] it was 115 µg/mL (≈ 361 µM); with Bacillus subtilis, 140 µg/mL (≈ 440 µM). In addition, the zone of inhibition at 150 µg/disc was determined as 12 mm with Diutina rugosa [2] and 15 mm in the assay with Candida albicans [4]. Besides, the zone of inhibition at 100 µg/disc with Diutina rugosa [3] worked out at 7 mm; with Candida albicans [5], 10 mm.

On to `CCCCn1c(-c2ccccc2)c(/C=N/NC(N)=O)c2ccccc21`, for which the MIC was 110 µg/mL (≈ 329 µM) against Klebsiella pneumoniae; 120 µg/mL (≈ 359 µM) against Pseudomonas aeruginosa; 140 µg/mL (≈ 419 µM) against Escherichia coli; 125 µg/mL (≈ 374 µM) in the assay on Staphylococcus aureus; 135 µg/mL (≈ 404 µM) in assay [1]; more than 150 µg/mL with Bacillus subtilis. Besides, the zone of inhibition at 150 µg/disc in the assay on Diutina rugosa [2] was 10 mm; in the assay with Candida albicans [4], 12 mm. Besides, the zone of inhibition at 100 µg/disc in the assay with Diutina rugosa [3] and in the assay with Candida albicans [5] was 9 mm each time.

Consider `C#CCn1c(-c2ccccc2)c(/C=N/NC(N)=O)c2ccccc21`, for which the MIC against Klebsiella pneumoniae is 110 µg/mL (≈ 348 µM); against Pseudomonas aeruginosa, more than 150 µg/mL; in the assay on Escherichia coli it was more than 150 µg/mL; against Staphylococcus aureus, more than 150 µg/mL; in [1] it was more than 150 µg/mL; against Bacillus subtilis, 125 µg/mL (≈ 395 µM). Besides, the figures for the zone of inhibition at 150 µg/disc in the assay with Diutina rugosa [2] and with Candida albicans [4] were 15 mm and 13 mm, respectively. Also, the zone of inhibition at 100 µg/disc came out at 10 mm with Diutina rugosa [3] and 8 mm with Candida albicans [5].

Turning to `C[C@@H]1[C@H](O)[C@@H](C)/C=C/C=C/C=C/C=C/C=C/C=C/C=C/[C@H](O[C@@H]2O[C@H](C)[C@@H](O)[C@H](N)[C@@H]2O)C[C@@H]2O[C@](O)(C[C@@H](O)C[C@@H](O)[C@H](O)CC[C@@H](O)C[C@@H](O)CC(=O)O[C@H]1C)C[C@H](O)[C@H]2C(=O)O` [AMPHOTERICIN B], the zone of inhibition at 50 µg/disc in the assay on Diutina rugosa [6] was 21 mm; with Candida albicans [7], 23.5 mm.

For `O=C(O)c1cn(C2CC2)c2cc(N3CCNCC3)c(F)cc2c1=O` [CIPROFLOXACIN], the MIC against Klebsiella pneumoniae turned out to be 25 µg/mL (≈ 75.4 µM); against Escherichia coli it was 20 µg/mL (≈ 60.4 µM); in [1], 22 µg/mL (≈ 66.4 µM); against Bacillus subtilis it was 24 µg/mL (≈ 72.4 µM).

A word on the MIC: it is the smallest concentration in the dilution series that meets the test's criterion for growth inhibition. A higher MIC goes with a need for much substance.

For the origin of these results see ChEMBL document CHEMBL3045633, “Synthesis and antimicrobial activity of newer indole semicarbazones” (2012).
